Results reported in BigSolDB 2.1.

N#Cc1ccc(C(c2ccc(C#N)cc2)n2cncn2)cc1
solubility (mole fraction)
Conditions	283.15 K	288.15 K	293.15 K	298.15 K	303.15 K	308.15 K	313.15 K	318.15 K	323.15 K
in THF	0.0164	0.0184	0.0206	0.0229	0.0254	0.0281	0.0309	0.034	0.0373
in acetone	0.0147	0.0168	0.019	0.0214	0.0241	0.027	0.0301	0.0335	0.0371
in acetonitrile	0.00638	0.0077	0.00923	0.011	0.0131	0.0154	0.018	0.021	0.0244
in ethanol	0.000456	0.000586	0.000748	0.000946	0.00119	0.00148	0.00183	0.00225	0.00275
in ethyl acetate	0.00527	0.00609	0.007	0.00802	0.00914	0.0104	0.0117	0.0132	0.0148
in methanol	0.00108	0.00133	0.00163	0.00198	0.00239	0.00287	0.00342	0.00406	0.00479
in methyl acetate	0.0105	0.0119	0.0135	0.0151	0.017	0.019	0.0211	0.0234	0.0259
in n-propanol	0.000351	0.000461	0.0006	0.000773	0.000989	0.00125	0.00158	0.00197	0.00245
